Source: patent US11713318B2, “Short conjugated oligoelectrolytes and uses thereof” (The Regents Of The University Of California, priority 2018, dated 2023)
Values after ≈ are worked out from the molar mass of the structure shown. Where two headings read alike, the source gives them in different places.

How the values were obtained:
[1] = system: K. aerogenes (ATCC 13048); assay: MIC broth microdilution method, Table 3; conditions: Klebsiella aerogenes, ATCC13048
[2] = system: S. epidermidis (ATCC 14990); assay: MIC broth microdilution method, Table 3; conditions: Staphylococcus epidermidis, ATCC14990
[3] = system: J774 (ATCC TIB-67) cells; assay: Cytotoxicity, MTT assay; type: cell-based; conditions: Mus musculus, MTT, 24 hours incubation, read-out: IC50
Description: (§1) Before removing the frozen cell stocks from liquid nitrogen, culture medium was pre-warmed to 37° C. The frozen tube was then removed from liquid nitrogen and placed into a 37° C. water bath and shaken gently to thaw the cell stock as quickly as possible. A small portion of the pre-warmed culture medium was added to the cell solution. The cell suspension was then centrifuged at 1000 r/min for 3 minutes. The supernatant was discarded and the cells were resuspended in fresh culture medium.
(§2) NIH 3T3 (ATCC CRL-1658) and Hep G2 (ATCC HB-8065) cells were cultured with DMEM+10% FBS in 100 mm dishes. Cells were lifted for subculture or testing when confluence reached ˜60% by treating with 1× trypsin (incubated for 3 min at 37° C.). J774 (ATCC TIB-67) cells were cultured with DMEM+10% FBS in 100 mm dishes. Cells were lifted for subculture or testing when confluence reached ˜80% using a cell scraper. RAW264.7 (ATCC TIB-71) cells were cultured with DMEM+10% heat-inactivated FBS+1% pen/strep in T75 flasks. Cells were lifted for subculture or testing when confluence reached ˜80% using a cell scraper.
(§3) • 1. Cells were lifted and resuspended in culture medium. The number of cells in the cell suspension was determined using an auto-cell counter: 10 μL of the cell suspension was mixed with 10 μL 1× trypan blue (filtered with 0.2 μm PES filter) and the mixture was loaded onto a cell counting slide. Based on the concentration of viable cells, the cell suspension was further diluted to achieve the desired density. • 2. Cells were seeded in 96 well plates by adding 100 μL final cell suspension column-by-column using a multichannel pipette (5000 cells/well for NIH 3T3, 10000 cells/well for Hep G2, J774 and RAW264.7). The outer wells were block with PBS to reduce the effects of evaporation. One column was filled with only culture medium as a blank. Cells were incubated overnight before adding the test articles. • 3. Test articles were dissolved in 1×PBS (or DMSO) to obtain stocks solution. Stock solutions were pre-warmed before use. […] Serial dilutions (2-fold) of the 10× solutions were made in sterile culture tubes by diluting in 1×PBS (8 dilutions to yield 9 test concentrations). 900 μL of culture media was added to each tube to obtain final drug solution containing 10% PBS (or less than 1% DMSO) for each experimental group. • 4. The original culture medium was gently removed from the 96-well plates using a pipette. 100 μL of the test article solutions prepared in Step 3 were added to rows 2-7 of each column to obtain six replicates for each concentration. Plates were then incubated for 24 hours. • 5. MTT solutions were prepared by dissolving commercial MTT powder in 1×PBS to a concentration of 5 mg/mL. After passing through a 0.22 μm PES filter, the MTT solution was divided into 1 mL portions in sterile centrifuge tubes and stored at −20° C. • 6. MTT stock solutions were removed from the freezer to thaw at room temperature. Before adding MTT solutions, cell cultures were visually inspected and imaged using a microscope (to use as a comparison with MTT results). 10 μL of the 5 mg/mL MTT solution was added to each well and the plate was incubated for 4 hours. • 7. After 4 h incubation, the culture medium/MT solution was removed gently using a pipette. 100 μL of DMSO was added to each well using a multichannel pipette. The 96-well plates were analyzed in a plate reader using the following method: shake for 5 minutes, wait for 30 seconds, and measure absorbance at 570 nm. • 8. Data processing: The average of background Abg was calculated from the blank column. All other data was first treated by subtracting Abg. The average A. and standard deviation Se of each experimental group and the average Ac and standard deviation Sc for control group (with pure culture medium incubation) were then calculated. The cell viability was determined as Ae/Ac×100% and corresponding error as Se/Ae×100%. Significant outliers in any experimental or control group were removed. […]

[4] = Cytotoxicity, MTT assay; type: cell-based; conditions: at the concentration given as IC50 bound, read-out: cell viability at the highest or lowest test concentration
Description: as §1, §2, §3

[5] = system: Hep G2 (ATCC HB-8065) cells; assay: Cytotoxicity, MTT assay; type: cell-based; conditions: Homo sapiens, HepG2, 24 h, Hep G2; MTT, 24 hours incubation; read-out: IC50
Description: as §1, §2, §3

[6] = system: NIH 3T3 (ATCC CRL-1658) cells; assay: Cytotoxicity, MTT assay; type: cell-based; conditions: Mus musculus, NIH3T3; NIH 3T3; MTT, 24 hours incubation; read-out: IC50
Description: as §1, §2, §3

[7] = system: E. coli K12 (ATCC 47076); assay: MIC broth microdilution method, Table 3; conditions: Escherichia coli, ATCC47076
[8] = system: Hep G2 cells; assay: Cytotoxicity tested by Eurofins Pharma Discovery Services; type: cell-based; conditions: Homo sapiens, HepG2; Hep G2; data provided by Eurofins; read-out: IC50
[9] = system: HRPTEpiC; assay: as above; type: cell-based; conditions: data provided by Eurofins, read-out: IC50
[10] = system: E. coli ATCC25922 (WT); assay: MIC against resistant strains, Tables 5a-5d; type: cell-based; conditions: Escherichia coli, n = 3
Description: (§4) Compounds described herein were evaluated for growth inhibition against a variety of bacterial species, including strains that have developed resistance to common antibacterial treatments, according to the procedure described herein, or by analogous procedures known to those skilled in the art. Resistant bacterial strains used for compound testing include methicillin-resistant S. aureus (MRSA), vancomycin resistant Enterococci (VRE) and various multi-drug resistant (MDR) strains commonly associated with hospital-acquired (nosocomial) infections, including, but not limited to A. baumannii, K. pnuemoniae, and E. cloacae.

[11] = system: A. baumannii 1674627 (MDR); assay: MIC against resistant strains, Tables 5a-5d; type: cell-based; conditions: Acinetobacter baumannii, n = 3
Description: as §4

[12] = system: E. faecium 1674620 (VRE); assay: MIC against resistant strains, Tables 5a-5d; type: cell-based; conditions: Enterococcus faecium, n = 3
Description: as §4

[13] = system: S. aureus ATCC 33591 (MRSA); assay: MIC against resistant strains, Tables 5a-5d; type: cell-based; conditions: Staphylococcus aureus, n = 3
Description: as §4

[14] = system: P. aeruginosa 1674623 (MDR); assay: MIC against resistant strains, Tables 5a-5d; type: cell-based; conditions: Pseudomonas aeruginosa, n = 3
Description: as §4

[15] = system: A. baumannii CDC0290 (MDR); assay: MIC against resistant strains, Tables 5a-5d; type: cell-based; conditions: Acinetobacter baumannii, n = 3
Description: as §4

[16] = system: S. aureus ATCC BAA-1717 (MRSA); assay: MIC against resistant strains, Tables 5a-5d; type: cell-based; conditions: Staphylococcus aureus, n = 3
Description: as §4

[17] = system: K. pneumoniae CDC0010 (MDR); assay: MIC against resistant strains, Tables 5a-5d; type: cell-based; conditions: Klebsiella pneumoniae, n = 3
Description: as §4

[18] = system: K. pneumoniae ATCC BAA-2473 (MDR); assay: MIC against resistant strains, Tables 5a-5d; type: cell-based; conditions: Klebsiella pneumoniae, ATCCBAA2473, n = 3
Description: as §4

[19] = system: P. aeruginosa CDC0248 (MDR); assay: MIC against resistant strains, Tables 5a-5d; type: cell-based; conditions: Pseudomonas aeruginosa, n = 3
Description: as §4

[20] = system: E. cloacae 1744299 (ESBL); assay: MIC against resistant strains, Tables 5a-5d; type: cell-based; conditions: Enterobacter cloacae, n = 3
Description: as §4

[21] = system: primary human hepatocytes; assay: Cytotoxicity tested by Eurofins Pharma Discovery Services; type: cell-based; conditions: Hepatocyte, data provided by Eurofins, read-out: IC50
[22] = human, Hep G2 (ATCC HB-8065) cells, Hep G2

Row | MIC [1] [µg/mL] | MIC [2] [µg/mL] | MIC [7] [µg/mL] | Structure (SMILES) | IC50 [3] [µg/mL] | viability at 24 h [4, 22] [%] | IC50 [5] [µg/mL] | IC50 [6] [µg/mL] | IC50 [8] [µg/mL] | IC50 [9] [µg/mL] | IC50 [21] [µg/mL] | other results
1 | 0.25 (≈ 0.486 µM) | 1 (≈ 1.94 µM) | 0.0625 (≈ 0.121 µM) | CO/N=C(\C(=O)N[C@@H]1C(=O)N2C(C(=O)[O-])=C(C[n+]3cccc4c3CCC4)CS[C@H]12)c1csc(N)n1 [Cefpirome, reference compound] | > 128 | 101 | > 128 | > 128 | – | – | – | viability at 24 h ([4]; mouse, J774 (ATCC TIB-67) cells): 107%; viability at 24 h ([4]; mouse, NIH 3T3 (ATCC CRL-1658) cells, NIH 3T3): 81%
2 | 8 | 2 | 4 | CCCCC[N+](C)(C)CCCCOc1cc(/C=C/c2ccc(/C=C/c3cc(OCCCC[N+](C)(C)CCCCC)cc(OCCCC[N+](C)(C)CCCCC)c3)cc2)cc(OCCCC[N+](C)(C)CCCCC)c1 [Formula S] | 22.6 | 52 | > 128 | 42.3 | – | – | – | –
3 | 8 | 1 | 4 | CCCCCC[N+](C)(C)CCCCOc1cc(/C=C/c2ccc(/C=C/c3cc(OCCCC[N+](C)(C)CCCCCC)cc(OCCCC[N+](C)(C)CCCCCC)c3)cc2)cc(OCCCC[N+](C)(C)CCCCCC)c1.[I-].[I-].[I-].[I-] [Formula T] | 4.6 | – | 15.3 | 12.4 | 11.6 | 2.8 | 31.8 | MIC [10]: 2 µg/mL; MIC [11]: 2 µg/mL; MIC [12]: 0.25 µg/mL; MIC [13]: 0.5 µg/mL; MIC [14]: 16 µg/mL; MIC [15]: 4 µg/mL; MIC [16]: 1 µg/mL; MIC [17]: 4 µg/mL; MIC [18]: 4 µg/mL; MIC [19]: 32 µg/mL; MIC [20]: 2 µg/mL
4 | > 128 | 4 | > 256 | C[N+](C)(C)CCCCCCOc1cc(/C=C/c2ccc(/C=C/c3ccc(/C=C/c4cc(OCCCCCC[N+](C)(C)C)cc(OCCCCCC[N+](C)(C)C)c4)cc3)cc2)cc(OCCCCCC[N+](C)(C)C)c1 [Formula TT] | – | 70 | > 128 | 69.3 | 94.6 | 6.3 | 102 | –
